# Laboratory results taken from publication PMC4800460 (Journal of Biomolecular Screening, 2015).
# pKd: −log10 of the molar value.
# Biological target: NT647-MEK1 (MEK1 residues 37–383) (Homo sapiens, UniProt Q02750)
# Assay: Automated microscale thermophoresis
# Format: binding
# Chain of NT647-MEK1 (MEK1 residues 37–383) (Q02750 37-383): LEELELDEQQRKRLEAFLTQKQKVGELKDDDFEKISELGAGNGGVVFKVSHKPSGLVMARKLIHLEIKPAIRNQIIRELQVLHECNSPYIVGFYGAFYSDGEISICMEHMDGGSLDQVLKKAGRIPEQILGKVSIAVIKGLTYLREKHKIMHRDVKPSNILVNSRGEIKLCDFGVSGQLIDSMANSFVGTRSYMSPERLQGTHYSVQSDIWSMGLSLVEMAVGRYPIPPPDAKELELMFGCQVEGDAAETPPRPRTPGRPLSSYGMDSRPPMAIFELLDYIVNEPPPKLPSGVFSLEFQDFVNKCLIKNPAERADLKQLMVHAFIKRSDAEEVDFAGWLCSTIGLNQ
compound,measurement,setting,value
"Nc1ncnc2c1ncn2[C@@H]1O[C@H](COP(=O)(O)OP(=O)(O)OP(=O)(O)O)[C@@H](O)[C@H]1O [ATP, adenosine triphosphate]",pKd,"Kd of ATP in the absence of MgCl2, without MgCl2",3.85
same,pKd,"Kd of ATP in the presence of MgCl2, MST buffer with 10 mM MgCl2",5.35
